Test results: patent US20230086703A1, “N-(4-(5-chloropyridin-3-yl)phenyl)-2-(2-(cyclopropanesulfonamido)pyrimidin-4-yl) butanamide derivatives and related compounds as human CTPS1 inhibitors for the treatment of proliferative diseases” (Step Pharma S.A.S., priority 2019, published 2023)
Where “and” joins values, the source holds several entries; their conditions need not be identical. Identical values can stand only once. Like-named read-outs stand apart in the source and are kept apart here. Values belong to the molecule of their own block, whether it stands above or below them.

Biological target: T1, human CTPS1 (Homo sapiens, UniProt P17812)
T1 construct: FLAG (with GG linker); His8 (with GG linker); purchased Proteros biostructures GmbH
T1 sequence (P17812 1-591): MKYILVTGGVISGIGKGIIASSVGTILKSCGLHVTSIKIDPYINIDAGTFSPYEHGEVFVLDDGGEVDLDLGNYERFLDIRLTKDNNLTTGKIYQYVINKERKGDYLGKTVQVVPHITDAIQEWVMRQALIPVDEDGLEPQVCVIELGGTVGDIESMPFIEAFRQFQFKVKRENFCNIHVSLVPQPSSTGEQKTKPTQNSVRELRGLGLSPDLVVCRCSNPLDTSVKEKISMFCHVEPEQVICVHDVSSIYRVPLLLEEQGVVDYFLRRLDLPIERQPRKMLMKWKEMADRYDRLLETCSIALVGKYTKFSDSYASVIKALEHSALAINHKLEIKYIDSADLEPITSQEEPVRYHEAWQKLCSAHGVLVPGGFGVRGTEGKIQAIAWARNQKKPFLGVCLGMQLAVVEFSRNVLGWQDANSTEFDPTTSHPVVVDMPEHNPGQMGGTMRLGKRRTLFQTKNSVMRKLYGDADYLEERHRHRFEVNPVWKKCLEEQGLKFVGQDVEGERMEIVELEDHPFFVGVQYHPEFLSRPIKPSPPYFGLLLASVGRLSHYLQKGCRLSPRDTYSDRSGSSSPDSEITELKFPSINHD
Assay: Human CTPS1 enzyme inhibition, ADP-Glo Max assay
Format: biochemical
Procedure: The enzyme inhibitory activities of compounds invented against the target of interest were determined using the ADP-Glo™ Max assay (Promega, UK). Assays for human CTPS1 were performed in 1× assay buffer containing 50 mM Tris, 10 mM MgCl2, 0.01% Tween-20, pH to 8.0 accordingly. Finally, immediately before use, L-cysteine was added to the 1× assay buffer to a final concentration of 2 mM. All reagents are from Sigma-Aldrich unless specified otherwise.
3× human CTPS1 protein was prepared in 1× assay buffer to the final working protein concentration required for the reaction. A 2 uL volume per well of 3× human CTPS1 protein was mixed with 2 uL per well of 3× test compound (compound prepared in 1× assay buffer to an appropriate final 3× compound concentration respective to the concentration response curve designed for the compounds under test) for 10 minutes at 25° C. […] ADP-Glo™ Max reagent was added for 60 minutes (6 μL per well) and subsequently ADP-Glo™ Max development reagent was added for 60 minutes (12 uL per well) prior to signal detection in a microplate reader (EnVision® Multilabel Reader, Perkin Elmer). Following each reagent addition over the course of the assay, assay plates were pulse centrifuged for 30 seconds at 500 rpm.
In all cases, the enzyme converts ATP to ADP and the ADP-Glo™ Max reagent subsequently depletes any remaining endogenous ATP in the reaction system. The ADP-Glo™ Max detection reagent converts the ADP that has been enzymatically produced back into ATP and using ATP as a substrate together with luciferin for the enzyme luciferase, light is generated which produces a detectable luminescence. […] The percentage inhibition produced by each concentration of compound was calculated using the equation shown below: […]

[1] = ADP-Glo Max assay, Table 10, read-out: Human CTPS1 Enzyme Inhibition, IC50 grouped by potency range (CTPS1)

SMILES: Cc1ncc(Cl)nc1-c1ccc(NC(=O)C(C)(C)c2csc(NS(=O)(=O)C3CC3)n2)cc1 [T276, N-(4-(6-chloro-3-methylpyrazin-2-yl)phenyl)-2-(2-(cyclopropanesulfonamido)thiazol-4-yl)-2-methylpropanamide]
IC50 [1]: 100 to 1000 nM

SMILES: CCOc1cnc(-c2ccc(NC(CC)c3ccnc(NS(=O)(=O)C4CC4)n3)cc2)cn1 (centres unmarked) [P261]
IC50 (Table 12, ADP-Glo Max assay, read-out: CTPS1 (Human CTPS1 Enzyme Inhibition data grouped by potency range)): 100 to 1000 nM

SMILES: CCC(CC)(C(=O)Nc1ccc(-c2cncc(C#N)n2)cc1)c1csc(NS(=O)(=O)C2CC2)n1 [T161, N-(4-(6-cyanopyrazin-2-yl)phenyl)-2-(2-(cyclopropanesulfonamido)thiazol-4-yl)-2-ethylbutanamide]
IC50 [1]: 100 to 1000 nM and 1000 to 10000 nM

SMILES: COc1ccc(-c2ccc(NC(=O)C(C)(C)c3csc(NS(=O)(=O)C4CC4)n3)cc2)cn1 [T46, 2-(2-(cyclopropanesulfonamido)thiazol-4-yl)-N-(4-(6-methoxypyridin-3-yl)phenyl)-2-methylpropanamide]
IC50 [1]: 1000 to 10000 nM

SMILES: CCC(CC)(C(=O)Nc1ccc(-c2cccnc2)cn1)c1csc(NS(=O)(=O)C2CC2)n1 [T144, N-([3,3′-bipyridin]-6-yl)-2-(2-(cyclopropanesulfonamido)thiazol-4-yl)-2-ethylbutanamide]
IC50 [1]: 100 to 1000 nM

SMILES: CCOc1cncc(-c2ccc(NC(=O)C(C)(C)c3csc(NS(=O)(=O)C4CC4)n3)c(F)c2)n1 [T134, 2-(2-(cyclopropanesulfonamido)thiazol-4-yl)-N-(4-(6-ethoxypyrazin-2-yl)-2-fluorophenyl)-2-methylpropanamide]
IC50 [1]: < 100 nM

SMILES: Cc1cc(-c2cncc(Cl)n2)ccc1NC(=O)C(C)(C)c1csc(NS(=O)(=O)C2CC2)n1 [T138, N-(4-(6-chloropyrazin-2-yl)-2-methylphenyl)-2-(2-(cyclopropanesulfonamido)thiazol-4-yl)-2-methylpropanamide]
IC50 [1]: < 100 nM

SMILES: CC(C)(C(=O)Nc1ccc(-c2cncc(OC(F)F)c2)cc1F)c1csc(NS(=O)(=O)C2CC2)n1 [T139, 2-(2-(cyclopropanesulfonamido)thiazol-4-yl)-N-(4-(5-(difluoromethoxy)pyridin-3-yl)-2-fluorophenyl)-2-methylpropanamide]
IC50 [1]: < 100 nM

SMILES: CCCOc1cncc(-c2ccc(NC(=O)C(C)(C)c3csc(NS(=O)(=O)C4CC4)n3)nc2)n1 [T38, 2-(2-(cyclopropanesulfonamido)thiazol-4-yl)-2-methyl-N-(5-(6-propoxypyrazin-2-yl)pyridin-2-yl)propanamide]
IC50 [1]: < 100 nM

SMILES: CC(C)(C(=O)Nc1ncc(-c2cncc(Cl)c2)cc1F)c1csc(NS(=O)(=O)C2CC2)n1 [T229, N-(5′-chloro-5-fluoro-[3,3′-bipyridin]-6-yl)-2-(2-(cyclopropanesulfonamido)thiazol-4-yl)-2-methylpropanamide]
IC50 [1]: < 100 nM

SMILES: CC(C)Oc1cncc(-c2ccc(NC(=O)C(C)(C)c3csc(NS(=O)(=O)C4CC4)n3)cc2)c1 [T158, 2-(2-(cyclopropanesulfonamido)thiazol-4-yl)-N-(4-(5-isopropoxypyridin-3-yl)phenyl)-2-methylpropanamide]
IC50 [1]: < 100 nM

SMILES: CC(C)CS(=O)(=O)Nc1nc(C(C)(C)C(=O)Nc2ccc(-c3cccnc3)cc2)cs1 [T311, 2-methyl-2-(2-((2-methylpropyl)sulfonamido)thiazol-4-yl)-N-(4-(pyridin-3-yl)phenyl)propanamide]
IC50 [1]: 1000 to 10000 nM

SMILES: COC(C(=O)Nc1ccc(-c2cncc(C(F)(F)F)n2)cc1F)c1csc(NS(=O)(=O)C2CC2)n1 (single isomer, unassigned) [T459, 2-(2-(cyclopropanesulfonamido)thiazol-4-yl)-N-(2-fluoro-4-(6-(trifluoromethyl)pyrazin-2-yl)phenyl)-2-methoxyacetamide]
IC50 [1]: < 100 nM

SMILES: CC(C)(C(=O)Nc1ccc(-c2ccnnc2)cc1)c1csc(NS(=O)(=O)C2CC2)n1 [T31, 2-(2-(cyclopropanesulfonamido)thiazol-4-yl)-2-methyl-N-(4-(pyridazin-4-yl)phenyl)propanamide]
IC50 [1]: 1000 to 10000 nM

SMILES: CC(C)(C(=O)Nc1ccc(-c2cncc(C#N)c2)cc1F)c1csc(NS(=O)(=O)C2CC2)n1 [T129, N-(4-(5-cyanopyridin-3-yl)-2-fluorophenyl)-2-(2-(cyclopropanesulfonamido)thiazol-4-yl)-2-methylpropanamide]
IC50 [1]: < 100 nM

SMILES: CCC(C(=O)Nc1ccc(-c2cccnc2)cn1)c1csc(NS(=O)(=O)C2CC2)n1 (centres unmarked) [T62, N-([3,3′-bipyridin]-6-yl)-2-(2-(cyclopropanesulfonamido)thiazol-4-yl)butanamide]
IC50 [1]: 100 to 1000 nM

SMILES: COc1cncc(-c2ccc(NC(=O)C(C)(C)c3csc(NS(=O)(=O)C4CC4)n3)nc2)c1 [T224, 2-(2-(cyclopropanesulfonamido)thiazol-4-yl)-N-(5′-methoxy-[3,3′-bipyridin]-6-yl)-2-methylpropanamide]
IC50 [1]: < 100 nM

Next, values leading:

IC50 [1]: 100 to 1000 nM
SMILES: O=C(Cc1csc(NS(=O)(=O)C2CC2)n1)Nc1ccc(-c2cncnc2)cn1 [T64, 2-(2-(cyclopropanesulfonamido)thiazol-4-yl)-N-(5-(pyrimidin-5-yl)pyridin-2-yl)acetamide]

IC50 [1]: 1000 to 10000 nM
SMILES: Cc1cc(Cl)cc(-c2ccc(NC(=O)C(C)(C)c3csc(NS(=O)(=O)C4CC4)n3)nc2)c1 [T231, N-(5-(3-chloro-5-methylphenyl)pyridin-2-yl)-2-(2-(cyclopropanesulfonamido)thiazol-4-yl)-2-methylpropanamide]

IC50 [1]: < 100 nM
SMILES: CC(C)(C(=O)Nc1ccc(-c2cncc(C(F)(F)F)c2)cc1)c1csc(NS(=O)(=O)C2CC2)n1 [T48, 2-(2-(cyclopropanesulfonamido)thiazol-4-yl)-2-methyl-N-(4-(5-(trifluoromethyl)pyridin-3-yl)phenyl)propanamide]

IC50 [1]: < 100 nM
SMILES: CCC(C(=O)Nc1ccc(-c2cncc(F)c2)cc1)c1csc(NS(=O)(=O)C2CC2)n1 (single isomer, unassigned) [T72, 2-(2-(cyclopropanesulfonamido)thiazol-4-yl)-N-(4-(5-fluoropyridin-3-yl)phenyl)butanamide]

IC50 [1]: 100 to 1000 nM
SMILES: O=C(Cc1csc(NS(=O)(=O)C2CC2)n1)Nc1ccc(-c2cncnc2)nc1 [T23, 2-(2-(cyclopropanesulfonamido)thiazol-4-yl)-N-(6-(pyrimidin-5-yl)pyridin-3-yl)acetamide]

IC50 [1]: 100 to 1000 nM
SMILES: CCOc1cncc(-c2ccc(NC(=O)C(C)(C)c3csc(NS(=O)(=O)CC(C)C)n3)cc2)n1 [T312, N-(4-(6-ethoxypyrazin-2-yl)phenyl)-2-methyl-2-(2-((2-methylpropyl)sulfonamido)thiazol-4-yl)propanamide]

IC50 [1]: < 100 nM
SMILES: COc1cncc(-c2ccc(NC(=O)C(C)(C)c3csc(NS(=O)(=O)C4CC4)n3)c(C)c2)c1 [T285, 2-(2-(cyclopropanesulfonamido)thiazol-4-yl)-N-(4-(5-methoxypyridin-3-yl)-2-methylphenyl)-2-methylpropanamide]

IC50 [1]: < 100 nM
SMILES: CC(C)(C(=O)Nc1ccc(-c2cccnc2)cc1OC(F)(F)F)c1csc(NS(=O)(=O)C2CC2)n1 [T40, 2-(2-(cyclopropanesulfonamido)thiazol-4-yl)-2-methyl-N-(4-(pyridin-3-yl)-2-(trifluoromethoxy)phenyl)propanamide]

IC50 [1]: 1000 to 10000 nM
SMILES: CC(C)(C(=O)Nc1ncc(-c2cncc(C#N)n2)cc1F)c1csc(NS(=O)(=O)C2CC2)n1 [T113, N-(5-(6-cyanopyrazin-2-yl)-3-fluoropyridin-2-yl)-2-(2-(cyclopropanesulfonamido)thiazol-4-yl)-2-methylpropanamide]

IC50 [1]: < 100 nM
SMILES: CC(C)(C(=O)Nc1ccc(-c2cncc(F)c2)cn1)c1csc(NS(=O)(=O)C2CC2)n1 [T261, 2-(2-(cyclopropanesulfonamido)thiazol-4-yl)-N-(5′-fluoro-[3,3′-bipyridin]-6-yl)-2-methylpropanamide]

IC50 [1]: 1000 to 10000 nM
SMILES: COc1cc(OC)cc(-c2ccc(NC(=O)C(C)(C)c3csc(NS(=O)(=O)C4CC4)n3)nc2)c1 [T234, 2-(2-(cyclopropanesulfonamido)thiazol-4-yl)-N-(5-(3,5-dimethoxyphenyl)pyridin-2-yl)-2-methylpropanamide]

IC50 [1]: < 100 nM
SMILES: CCOc1cncc(-c2ccc(NC(=O)C(C)(C)c3csc(NS(=O)(=O)C4(C)CC4)n3)cc2)n1 [T301, N-(4-(6-ethoxypyrazin-2-yl)phenyl)-2-methyl-2-(2-((1-methylcyclopropane)-1-sulfonamido)thiazol-4-yl)propanamide]
